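Dose response: 5 concentrations. Exposure: 48 h. Format: 96-well plates. Endpoint: linear interpolation; highest concentration if not reached. GI50 is the concentration that inhibits growth by half.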 Activity calls are given as the source filed them. Rule as the data show it: active = GI50 up to about 1.1 µM and inactive = higher.
Tests used:
Assay in all cases: NCI anticancer screen, dose series, 48 h
SK-MEL-28 = system: SK-MEL-28
HOP-62 = system: HOP-62
MDA-MB-435 = system: MDA-MB-435
KM12 = system: KM12
HT-29 = system: HT-29
UO-31 = system: UO-31
T47D = system: T47D
NCI-H522 = system: NCI-H522
OVCAR-8 = system: OVCAR-8
CAKI-1 = system: CAKI-1
SK-MEL-5 = system: SK-MEL-5
SF-268 = system: SF-268
IGROV-1 = system: IGROV-1
SK-MEL-2 = system: SK-MEL-2
MOLT-4 = system: MOLT-4
PC-3 = system: PC-3
OVCAR-3 = system: OVCAR-3
LOX IMVI = system: LOX IMVI
COLO 205 = system: COLO 205
SK-OV-3 = system: SK-OV-3

Measured: GI50

CC(=O)O[C@@H](c1nccn1Cc1ccccc1)[C@H]1OC(C)(C)O[C@@H]1[C@H]1COC(C)(C)O1
inactive: SK-MEL-28 > 100 µM | HOP-62 > 100 µM | MDA-MB-435 > 100 µM | KM12 > 100 µM | HT-29 > 100 µM | UO-31 > 100 µM | T47D > 10 µM | NCI-H522 > 100 µM | OVCAR-8 > 100 µM | CAKI-1 > 100 µM | SK-MEL-5 > 100 µM | SF-268 > 100 µM | IGROV-1 > 100 µM | SK-MEL-2 > 100 µM | MOLT-4 > 100 µM | PC-3 > 100 µM | OVCAR-3 > 100 µM | LOX IMVI > 100 µM | COLO 205 > 100 µM

O=c1[nH]c(=O)n(C/C=C/CO)nc1Br
inactive: SK-MEL-28 > 100 µM | HOP-62 > 100 µM | MDA-MB-435 > 100 µM | KM12 > 100 µM | HT-29 > 100 µM | UO-31 > 100 µM | T47D > 100 µM | NCI-H522 > 100 µM | OVCAR-8 > 100 µM | CAKI-1 > 100 µM | SK-MEL-5 > 100 µM | SF-268 > 100 µM | IGROV-1 > 100 µM | SK-MEL-2 > 100 µM | MOLT-4 > 100 µM | PC-3 > 100 µM | OVCAR-3 > 100 µM | LOX IMVI > 100 µM | COLO 205 > 100 µM

COC(=O)C1=C(N)C2=C(N)Oc3ccccc3C2CC1=C(C#N)C#N (stereo not given)
inactive: HOP-62 33.5 µM | MDA-MB-435 34.8 µM | KM12 15.7 µM | HT-29 26.2 µM | UO-31 19.2 µM | T47D 25.9 µM | NCI-H522 15.8 µM | OVCAR-8 23.9 µM | CAKI-1 23.2 µM | SK-OV-3 31.4 µM | SK-MEL-5 25.8 µM | SF-268 29.7 µM | IGROV-1 18.4 µM | SK-MEL-2 25.9 µM | MOLT-4 33.4 µM | PC-3 28.1 µM | OVCAR-3 25.6 µM | LOX IMVI 18.8 µM | COLO 205 22.5 µM

COc1ccc([N+](=O)[O-])cc1[I+]c1cc([N+](=O)[O-])ccc1OC
inactive: SK-MEL-28 7.64 µM | HOP-62 > 100 µM | MDA-MB-435 21.3 µM | KM12 22.7 µM | HT-29 38 µM | UO-31 60.5 µM | T47D 28.8 µM | NCI-H522 27 µM | OVCAR-8 73.6 µM | CAKI-1 38.6 µM | SK-OV-3 29.4 µM | SK-MEL-5 12.4 µM | SF-268 25.1 µM | IGROV-1 23 µM | SK-MEL-2 27.5 µM | PC-3 52 µM | OVCAR-3 54.1 µM | LOX IMVI 29.4 µM | COLO 205 68.9 µM

O=C(O)c1ccccc1/C=C1/Cc2ccc3c(c2C1=O)CCC3
inactive: SK-MEL-28 42.8 µM | HOP-62 68.9 µM | MDA-MB-435 26.3 µM | KM12 37.8 µM | HT-29 44.7 µM | UO-31 39.7 µM | T47D 89.3 µM | NCI-H522 42.4 µM | OVCAR-8 48.1 µM | CAKI-1 > 100 µM | SK-MEL-5 18.2 µM | SF-268 36.1 µM | IGROV-1 43.6 µM | SK-MEL-2 12.7 µM | MOLT-4 33.8 µM | PC-3 42.9 µM | OVCAR-3 31.8 µM | LOX IMVI 19.1 µM | COLO 205 19.1 µM

CC[C@H](C)C1=C(OC(C)=O)[N@+]2([O-])Oc3ccc(-c4c(OC(C)=O)c(OC(C)=O)c(-c5ccc(OC(C)=O)cc5)c(OC(C)=O)c4OC(C)=O)cc3O[C@]2([C@@H](C)CC)C(=O)N1OC(C)=O
inactive: SK-MEL-28 12.2 µM | MDA-MB-435 16 µM | KM12 14.4 µM | HT-29 15.6 µM | UO-31 21.4 µM | T47D 10.5 µM | NCI-H522 8.05 µM | OVCAR-8 11.5 µM | CAKI-1 20 µM | SK-OV-3 12.7 µM | SK-MEL-5 10.2 µM | SF-268 14.7 µM | IGROV-1 9.29 µM | SK-MEL-2 9.64 µM | MOLT-4 11.6 µM | PC-3 8.59 µM | OVCAR-3 9.29 µM | LOX IMVI 10.2 µM | COLO 205 8.15 µM

COc1ccc2cc(CNCCCCCCNC(=O)Nc3cccc4ccccc34)ccc2c1
inactive: SK-MEL-28 > 100 µM | HOP-62 > 100 µM | MDA-MB-435 > 100 µM | KM12 > 100 µM | HT-29 > 100 µM | T47D > 100 µM | NCI-H522 > 100 µM | OVCAR-8 > 100 µM | CAKI-1 > 100 µM | SK-OV-3 > 100 µM | SK-MEL-5 > 100 µM | SF-268 > 100 µM | IGROV-1 > 100 µM | SK-MEL-2 > 100 µM | MOLT-4 > 100 µM | PC-3 > 100 µM | OVCAR-3 > 100 µM | LOX IMVI > 100 µM | COLO 205 > 100 µM

CCOC1=C(c2ccccc2)N2CCCCC2O1 (stereo not given)
inactive: SK-MEL-28 12.3 µM | HOP-62 4.6 µM | MDA-MB-435 3.25 µM | KM12 3.27 µM | HT-29 2.99 µM | UO-31 19.8 µM | T47D 2.04 µM | NCI-H522 3.38 µM | OVCAR-8 3.89 µM | CAKI-1 26.5 µM | SK-MEL-5 1.7 µM | SF-268 4.34 µM | IGROV-1 5.78 µM | SK-MEL-2 2.25 µM | MOLT-4 4.27 µM | PC-3 2.61 µM | OVCAR-3 3.79 µM | LOX IMVI 3.77 µM | COLO 205 2.22 µM

COC1=C(OC)C23CCc4ccc(OC)c(O)c4C2(CCN3)CC1=O (stereo not given)
inactive: SK-MEL-28 > 100 µM | HOP-62 > 100 µM | MDA-MB-435 > 100 µM | KM12 > 100 µM | HT-29 > 100 µM | T47D > 100 µM | NCI-H522 > 100 µM | OVCAR-8 > 100 µM | CAKI-1 > 100 µM | SK-OV-3 > 100 µM | SK-MEL-5 > 100 µM | SF-268 > 100 µM | IGROV-1 > 100 µM | SK-MEL-2 > 100 µM | MOLT-4 > 100 µM | PC-3 > 100 µM | OVCAR-3 > 100 µM | LOX IMVI > 100 µM | COLO 205 > 100 µM

COc1cc(C2SCCCCCCCCCCSC(c3ccc(O)c(OC)c3)SCCCCCCCCCCS2)ccc1O (stereo not given)
inactive: SK-MEL-28 > 100 µM | HOP-62 > 100 µM | MDA-MB-435 > 100 µM | KM12 > 100 µM | HT-29 > 100 µM | UO-31 > 100 µM | T47D > 100 µM | NCI-H522 > 100 µM | OVCAR-8 > 100 µM | CAKI-1 > 100 µM | SK-OV-3 > 100 µM | SK-MEL-5 > 100 µM | SF-268 52.1 µM | IGROV-1 > 100 µM | SK-MEL-2 > 100 µM | MOLT-4 26.3 µM | PC-3 > 100 µM | LOX IMVI > 100 µM | COLO 205 > 100 µM
